Experiments:
[1] = tested on: gamma interferon production in monocyte and/or macrophage primary cell; assay: Production of gamma interferon by cells receiving 90I (FIG. 3); format: cell-based; conditions: compared with positive control PMA-lonomycin combination; ten days assay, single time point drug addition
Text: FIG. 3 illustrates a graph showing production of gamma interferon by cells receiving 90I compared to other drugs, according to an exemplary embodiment of the present general inventive concept.
Referring to FIG. 3, this assay may underscore 90I's absorptions in a monocyte and/or a macrophage primary cell, such that the anti-pathogenic compound may have stability and longer pharmacokinetic half-life in ten days assay with single time point drug addition.
Moreover, activated CD8+ cells are reported to produce high levels of gamma interferon, which may be involved in the anti-TB immune responses, contributing to both control of bacterial spread and concomitant lymphoid follicular lyses. […] This finding may have a far-reaching implication and relevant in that H2K1001 and/or 90I has the potential in the restoration of immune competence, a strong immune modulator. 90I may be as strong as a vaccine because it may modulate the immune cell signal switch from Th2 to Th1 (i.e. a subset of T lymphocytes that express CD4 and are known as T-helper cells, they produce cytokines, specifically Th1-type cytokines). T-helper subset population Th1 and Th2 subset have been identified in animals and humans based on cytokines secreted. […]

HIV strains = assay: Activity against HIV strains; format: cell-based; conditions: all HIV strains
Text: (§1) Referring to FIGS. 2A and 2B, an anti-pathogenic agent and/or the anti-pathogenic compound may be identified as 90I (or 90i). The anti-pathogenic compound may be derived from the herbal extract identified as H2K1001. […] The essence of combination drug therapy, HAART regiments, may be its effectiveness against all HIV-1 strains that is potent enough to bring the viral load down to an undetectable level. This may be achieved by combining an RT and a PR combination synergy to affect multiple modes of action.

reverse transcriptase = reverse transcriptase (Human immunodeficiency virus type 1 group M subtype B, UniProt P04585); assay: Effect on reverse transcriptase; format: biochemical, HIV
Text: as §1

protease (PR) enzyme = protease (PR) enzyme (Human immunodeficiency virus type 1 group M subtype B, UniProt P04585); assay: Effect on protease (PR) enzyme; format: biochemical, HIV
Text: as §1

SMILES: O=C(OCCOCCOC(=O)c1ccccc1)c1ccccc1 [90I, diethylene glycol dibenzoate]
- amount of gamma interferon produced [1]: equivalent to that of the positive control
- potency against HIV strains (HIV strains): highly potent against all HIV strains
- effectiveness against reverse transcriptase (reverse transcriptase): potently effective
- effectiveness against protease (PR) enzyme (protease (PR) enzyme): potently effective

Source: patent US20210382051A1, “METHODS AND COMPOUND FOR THE IDENTIFICATION AND TREATMENT OF TUBERCULOSIS” (priority 2020, published 2021)
